Source: ChEMBL document CHEMBL5550173, “Design, synthesis and biological evaluation of indoline-maleimide conjugates as potential antitumor agents for the treatment of colorectal cancer” (Bioorg Med Chem, 2024)
pIC50: −log10 of the molar value. The source made the active and inactive calls. The calls are words filed in the database; no cut-off is given here.

What was measured:
[1] = test system: RKO; test: Cytotoxicity against human RKO cells at 5 uM incubated for 72 hrs by MTS assay; format: functional
[2] = test system: HT-29; test: Cytotoxicity against human HT-29 cells at 5 uM incubated for 72 hrs by MTS assay; format: functional
[3] = test system: RKO; test: Cytotoxicity against human RKO cells incubated for 72 hrs by MTS assay; format: functional, cell-based
[4] = test system: HT-29; test: Cytotoxicity against human HT-29 cells incubated for 72 hrs by MTS assay; format: functional, cell-based; details: HT-29, 72 h
[5] = Cytotoxicity against human NCM460 cells incubated for 72 hrs by MTS assay; format: toxicity, cell-based
[6] = test system: HCT-116; test: Inhibition of cell migration in human HCT-116 cells at 2.5 to 10 uM measured upto 48 hrs by scratch wound healing assay; format: functional, cell-based; details: dose 2.5-10 µM
[7] = test system: RKO; test: Inhibition of cell migration in human RKO cells at 2.5 to 10 uM measured upto 48 hrs by scratch wound healing assay; format: functional, cell-based; details: dose 2.5-10 µM
[8] = test system: HCT-116; test: Induction of apoptosis in human HCT-116 cells assessed as early apoptotic cells at 5 uM incubated for 48 hrs by Annexin V-PE and propidium iodide staining based flow cytometry analysis (reference value: 0.4%); format: functional
[9] = test system: HCT-116; test: Induction of apoptosis in human HCT-116 cells assessed as late apoptotic cells at 5 uM incubated for 48 hrs by Annexin V-PE and propidium iodide staining based flow cytometry analysis (reference value: 0.5%); format: functional
[10] = test system: HCT-116; test: Induction of apoptosis in human HCT-116 cells assessed as necrotic cells at 5 uM incubated for 48 hrs by Annexin V-PE and propidium iodide staining based flow cytometry analysis (reference value: 1.3%); format: functional
[11] = test system: HCT-116; test: Induction of apoptosis in human HCT-116 cells assessed as viable cells at 10 uM incubated for 48 hrs by Annexin V-PE and propidium iodide staining based flow cytometry analysis (reference value: 97.8%); format: functional; details: read-out: Activity
[12] = test system: HCT-116; test: Induction of apoptosis in human HCT-116 cells assessed as necrotic cells at 10 uM incubated for 48 hrs by Annexin V-PE and propidium iodide staining based flow cytometry analysis (reference value: 1.3%); format: functional
[13] = test system: RKO; test: Induction of apoptosis in human RKO cells assessed as viable cells at 2.5 uM incubated for 48 hrs by Annexin V-PE and propidium iodide staining based flow cytometry analysis (reference value: 99.2%); format: functional; details: read-out: Activity
[14] = test system: RKO; test: Induction of apoptosis in human RKO cells assessed as viable cells at 5 uM incubated for 48 hrs by Annexin V-PE and propidium iodide staining based flow cytometry analysis (reference value: 99.2%); format: functional; details: read-out: Activity
[15] = test system: RKO; test: Induction of apoptosis in human RKO cells assessed as early apoptotic cells at 5 uM incubated for 48 hrs by Annexin V-PE and propidium iodide staining based flow cytometry analysis (reference value: 0.2%); format: functional
[16] = test system: RKO; test: Induction of apoptosis in human RKO cells assessed as late apoptotic cells at 5 uM incubated for 48 hrs by Annexin V-PE and propidium iodide staining based flow cytometry analysis (reference value: 0.3%); format: functional
[17] = test system: RKO; test: Induction of apoptosis in human RKO cells assessed as necrotic cells at 5 uM incubated for 48 hrs by Annexin V-PE and propidium iodide staining based flow cytometry analysis (reference value: 0.3%); format: functional
[18] = test system: RKO; test: Induction of apoptosis in human RKO cells assessed as viable cells at 10 uM incubated for 48 hrs by Annexin V-PE and propidium iodide staining based flow cytometry analysis (reference value: 99.2%); format: functional; details: read-out: Activity
[19] = test system: RKO; test: Induction of apoptosis in human RKO cells assessed as early apoptotic cells at 10 uM incubated for 48 hrs by Annexin V-PE and propidium iodide staining based flow cytometry analysis (reference value: 0.2%); format: functional
[20] = test system: RKO; test: Induction of apoptosis in human RKO cells assessed as late apoptotic cells at 10 uM incubated for 48 hrs by Annexin V-PE and propidium iodide staining based flow cytometry analysis (reference value: 0.3%); format: functional
[21] = test system: RKO; test: Induction of apoptosis in human RKO cells assessed as necrotic cells at 10 uM incubated for 48 hrs by Annexin V-PE and propidium iodide staining based flow cytometry analysis (reference value: 0.3%); format: functional
[22] = test system: HCT-116; test: Induction of cell cycle arrest in human HCT-116 cells assessed as accumulation of cells at G0/G1 phase incubated for 48 hrs by propidium iodide staining based flow cytometry analysis; format: functional; details: dose 2.5-10 µM
[23] = test system: HCT-116; test: Induction of cell cycle arrest in human HCT-116 cells assessed as decrease in S phase cells incubated for 48 hrs by propidium iodide staining based flow cytometry analysis; format: functional; details: dose 2.5-10 µM
[24] = test system: HCT-116; test: Induction of cell cycle arrest in human HCT-116 cells assessed as downregulation of CDK4 expression at 2.5 to 10 uM incubated for 48 hrs by Western blotting analysis; format: functional, cell-based; details: dose 2.5-10 µM
[25] = test system: HCT-116; test: Induction of cell cycle arrest in human HCT-116 cells assessed as downregulation of p-Rb expression at 2.5 to 10 uM incubated for 48 hrs by Western blotting analysis; format: functional, cell-based; details: dose 2.5-10 µM
[26] = test system: HCT-116; test: Effect on RB1 expression in human HCT-116 cells at 2.5 to 10 uM incubated for 48 hrs by Western blotting analysis; format: functional, cell-based; details: dose 2.5-10 µM
[27] = test system: RKO; test: Induction of cell cycle arrest in human RKO cells assessed as downregulation of CDK4 expression at 2.5 to 10 uM incubated for 48 hrs by Western blotting analysis; format: functional, cell-based; details: dose 2.5-10 µM
[28] = test system: RKO; test: Induction of cell cycle arrest in human RKO cells assessed as downregulation of CDK6 expression at 2.5 to 10 uM incubated for 48 hrs by Western blotting analysis; format: functional, cell-based; details: dose 2.5-10 µM
[29] = test system: RKO; test: Induction of cell cycle arrest in human RKO cells assessed as downregulation of p-Rb expression at 2.5 to 10 uM incubated for 48 hrs by Western blotting analysis; format: functional, cell-based; details: dose 2.5-10 µM
[30] = test system: RKO; test: Effect on CDK2 expression in human RKO cells at 2.5 to 10 uM incubated for 48 hrs by Western blotting analysis; format: functional, cell-based; details: dose 2.5-10 µM
[31] = target: Serine/threonine-protein kinase AKT (Homo sapiens) (UniProt P31751+Q9Y243+P31749); test: Inhibition of AKT phosphorylation in human HCT-116 cells by incubated for 48 hrs Western blotting analysis; format: cell-based; details: dose 2.5-10 µM
Sequence of Serine/threonine-protein kinase AKT (Homo sapiens) (P31749 whole entry, looked up): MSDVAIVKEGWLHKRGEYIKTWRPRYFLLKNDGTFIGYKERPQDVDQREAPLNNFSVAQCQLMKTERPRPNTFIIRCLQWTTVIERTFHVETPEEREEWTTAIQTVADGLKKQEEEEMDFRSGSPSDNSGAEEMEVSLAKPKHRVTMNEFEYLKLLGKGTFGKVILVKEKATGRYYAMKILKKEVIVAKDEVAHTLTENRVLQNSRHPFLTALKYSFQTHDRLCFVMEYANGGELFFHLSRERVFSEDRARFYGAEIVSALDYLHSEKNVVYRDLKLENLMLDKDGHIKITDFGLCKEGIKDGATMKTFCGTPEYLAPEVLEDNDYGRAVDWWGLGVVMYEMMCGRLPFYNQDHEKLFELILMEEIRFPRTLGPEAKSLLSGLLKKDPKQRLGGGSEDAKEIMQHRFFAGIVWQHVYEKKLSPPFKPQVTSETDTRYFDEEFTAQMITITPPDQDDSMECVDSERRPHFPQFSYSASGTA
Sequence of Serine/threonine-protein kinase AKT (Homo sapiens) (P31751 whole entry, looked up): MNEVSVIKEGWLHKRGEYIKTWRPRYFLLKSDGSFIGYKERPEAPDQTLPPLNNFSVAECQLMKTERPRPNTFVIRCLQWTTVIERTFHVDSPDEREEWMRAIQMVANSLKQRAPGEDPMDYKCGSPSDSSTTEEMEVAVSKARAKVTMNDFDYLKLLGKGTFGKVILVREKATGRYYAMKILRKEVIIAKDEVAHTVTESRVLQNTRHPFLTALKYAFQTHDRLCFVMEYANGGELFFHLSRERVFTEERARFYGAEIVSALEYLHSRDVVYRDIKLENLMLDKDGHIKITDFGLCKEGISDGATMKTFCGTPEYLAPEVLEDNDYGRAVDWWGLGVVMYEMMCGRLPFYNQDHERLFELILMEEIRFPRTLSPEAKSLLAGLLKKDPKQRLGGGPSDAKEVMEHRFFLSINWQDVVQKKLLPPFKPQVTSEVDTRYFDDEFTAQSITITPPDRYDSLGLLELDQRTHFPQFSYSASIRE
Sequence of Serine/threonine-protein kinase AKT (Homo sapiens) (Q9Y243 whole entry, looked up): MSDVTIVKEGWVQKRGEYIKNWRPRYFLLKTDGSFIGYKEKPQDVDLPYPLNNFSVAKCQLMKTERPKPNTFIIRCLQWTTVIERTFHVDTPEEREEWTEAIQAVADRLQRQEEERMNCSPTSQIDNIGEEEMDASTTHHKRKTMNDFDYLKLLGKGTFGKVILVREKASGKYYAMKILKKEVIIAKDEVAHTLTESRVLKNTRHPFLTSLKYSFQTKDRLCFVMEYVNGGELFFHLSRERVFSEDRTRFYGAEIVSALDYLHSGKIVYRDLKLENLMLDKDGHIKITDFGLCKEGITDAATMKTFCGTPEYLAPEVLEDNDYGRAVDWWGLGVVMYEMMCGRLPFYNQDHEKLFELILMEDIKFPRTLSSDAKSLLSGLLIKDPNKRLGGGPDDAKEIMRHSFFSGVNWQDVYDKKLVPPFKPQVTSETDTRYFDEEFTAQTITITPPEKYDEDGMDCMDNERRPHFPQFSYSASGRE

[32] = test system: HCT-116; test: Effect on GSK-3beta level in human HCT-116 cells at 2.5 to 10 uM incubated for 48 hrs by Western blotting analysis; format: functional, cell-based; details: dose 2.5-10 µM
[33] = test system: HCT-116; test: Antitumor activity against human HCT-116 cells xenografted in BALB/c mouse assessed as tumor growth suppression at 5 to 10 mg/kg, ip measured every 2 days; format: functional, organism-based; details: dose 5-10 mg/kg
[34] = test system: HCT-116; test: Antitumor activity against human HCT-116 cells xenografted in BALB/c mouse assessed as reduction in tumor volume at 5 to 10 mg/kg, ip measured every 2 days; format: functional, organism-based; details: dose 5-10 mg/kg
[35] = test system: HCT-116; test: Antitumor activity against human HCT-116 cells xenografted in BALB/c mouse assessed as reduction in Ki67 protein expression at 5 to 10 mg/kg, ip measured every 2 days by immunohistochemistry analysis; format: functional, organism-based; details: dose 5-10 mg/kg
[36] = Acute toxicity in BALB/c mouse assessed as body weight loss at 50 to 100 mg/kg, ip measured every 2 days; format: organism-based; details: in vivo, 48 h, dose 50-100 mg/kg
[37] = Acute toxicity in BALB/c mouse assessed as liver lesion at 50 to 100 mg/kg, ip measured every 2 days by H and E staining based assay; format: organism-based; details: in vivo, 48 h, dose 50-100 mg/kg
[38] = Acute toxicity in BALB/c mouse assessed as lung lesion at 50 to 100 mg/kg, ip measured every 2 days by H and E staining based assay; format: organism-based; details: in vivo, 48 h, dose 50-100 mg/kg

With `C=C(C)C(=O)N1CCc2cccc(C3=CC(=O)N(C)C3=O)c21` as the compound, how does the Activity [1] read?
The Activity was 100.1%.

And the Activity [2]?
The Activity was 99.28%.

And the pIC50 [3]?
Its pIC50 is 5.96.

What about the pIC50 [4] of the same compound?
Its pIC50 is 5.76.

And the IC50 at 72 h [5]?
The IC50 at 72 h was 63700 nM.

And the inhibition [6]?
The inhibition was “Active”.

And the inhibition [7]?
The inhibition was “Active”.

What about the Activity [8] of the same compound?
Its Activity is 1.5%.

And the Activity [9]?
Its Activity is 1.7%.

And the Activity [10]?
The Activity was 3.2%.

What about the viability at 10 µM [11] of the same compound?
The viability at 10 µM was 83.1%.

And the Activity [12]?
The Activity was 7.2%.

What about the viability at 2.5 µM [13] of the same compound?
The viability at 2.5 µM was 99%.

And the viability at 5 µM [14]?
Its viability at 5 µM is 98%.

And the Activity [15]?
The Activity was 1.5%.

What about the Activity [16] of the same compound?
The Activity was 0.4%.

What about the Activity [17] of the same compound?
Its Activity is 0%.

And the viability at 10 µM [18]?
The viability at 10 µM was 93.4%.

And the Activity [19]?
The Activity was 4.9%.

What about the Activity [20] of the same compound?
Its Activity is 1.1%.

What about the Activity [21] of the same compound?
Its Activity is 0.7%.

And the Activity [22]?
The Activity was “Dose-Dependent Effect”.

What about the Activity [23] of the same compound?
Its Activity is “Dose-Dependent Effect”.

What about the Activity [24] of the same compound?
The Activity was “Active”.

And the Activity [25]?
Its Activity is “Active”.

And the Activity [26]?
Its Activity is “inactive”.

What about the Activity [27] of the same compound?
Its Activity is “Active”.

And the Activity [28]?
The Activity was “Active”.

And the Activity [29]?
Its Activity is “Active”.

And the Activity [30]?
The Activity was “inactive”.

What about the inhibition [31] of the same compound?
Its inhibition is “Dose-Dependent Effect”.

What about the Activity [32] of the same compound?
Its Activity is “inactive”.

And the Activity [33]?
The Activity was “Active”.

And the Activity [34]?
The Activity was “Active”.

And the Activity [35]?
The Activity was “Active”.

And the Activity [36]?
The Activity was “Non-Toxic”.

What about the Activity [37] of the same compound?
Its Activity is “Non-Toxic”.

What about the Activity [38] of the same compound?
Its Activity is “Non-Toxic”.
